Test results reported in ChEMBL document CHEMBL1201862, “PubChem BioAssay data set” (2004).
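A five-concentration, 48-hour dose response in 96-well plates underlies each endpoint, interpolated linearly between surrounding concentrations. GI50 = concentration required for 50% inhibition of growth.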 Activity calls are given as the source filed them. Rule as the data show it: active = GI50 up to about 1.1 µM and inactive = higher.

Assays:
Assay in all cases: DTP human tumour cell line panel, 48 h
ACHN = tested on: ACHN
COLO 205 = tested on: COLO 205
HL-60 = tested on: HL-60
HOP-62 = tested on: HOP-62
KM12 = tested on: KM12
LOX IMVI = tested on: LOX IMVI
M19-MEL = tested on: M19-MEL
NCI-H460 = tested on: NCI-H460
OVCAR-5 = tested on: OVCAR-5
SF-539 = tested on: SF-539
SK-MEL-5 = tested on: SK-MEL-5
SNB-78 = tested on: SNB-78
SW-620 = tested on: SW-620
UACC-62 = tested on: UACC-62
UO-31 = tested on: UO-31
IGROV-1 = tested on: IGROV-1
M14 = tested on: M14

Cc1cc(C)c(C(=O)O)c(SSc2cc(C)cc(C)c2C(=O)O)c1
GI50 (ACHN): > 100 µM (inactive) | GI50 (COLO 205): > 100 µM (inactive) | GI50 (HL-60): > 100 µM (inactive) | GI50 (HOP-62): > 100 µM (inactive) | GI50 (KM12): > 100 µM (inactive) | GI50 (LOX IMVI): > 100 µM (inactive) | GI50 (M19-MEL): > 100 µM (inactive) | GI50 (NCI-H460): > 100 µM (inactive) | GI50 (OVCAR-5): > 100 µM (inactive) | GI50 (SF-539): > 100 µM (inactive) | GI50 (SK-MEL-5): > 100 µM (inactive) | GI50 (SNB-78): > 100 µM (inactive) | GI50 (SW-620): > 100 µM (inactive) | GI50 (UACC-62): > 100 µM (inactive) | GI50 (UO-31): > 100 µM (inactive)

CCN1c2ccccc2C(C(SC)S(=O)(=O)c2ccc(C)cc2)c2c1[nH]c(=O)n(C)c2=O (stereo not drawn)
GI50 (COLO 205): > 100 µM (inactive) | GI50 (HL-60): 89.9 µM (inactive) | GI50 (HOP-62): > 100 µM (inactive) | GI50 (IGROV-1): > 100 µM (inactive) | GI50 (KM12): > 100 µM (inactive) | GI50 (LOX IMVI): > 100 µM (inactive) | GI50 (M19-MEL): > 100 µM (inactive) | GI50 (OVCAR-5): > 100 µM (inactive) | GI50 (SF-539): > 100 µM (inactive) | GI50 (SK-MEL-5): > 100 µM (inactive) | GI50 (SNB-78): > 100 µM (inactive) | GI50 (SW-620): > 100 µM (inactive) | GI50 (UACC-62): > 100 µM (inactive) | GI50 (UO-31): > 100 µM (inactive)

O=C(CC1S/C(=N\c2ccccc2Cl)NC1=O)Nc1ccc(Cl)cc1 (stereo not drawn)
GI50 (ACHN): > 100 µM (inactive) | GI50 (COLO 205): 26.4 µM (inactive) | GI50 (HL-60): 94.4 µM (inactive) | GI50 (HOP-62): > 100 µM (inactive) | GI50 (IGROV-1): > 100 µM (inactive) | GI50 (KM12): > 100 µM (inactive) | GI50 (LOX IMVI): 99.3 µM (inactive) | GI50 (M14): > 100 µM (inactive) | GI50 (M19-MEL): > 100 µM (inactive) | GI50 (NCI-H460): > 100 µM (inactive) | GI50 (OVCAR-5): > 100 µM (inactive) | GI50 (SF-539): > 100 µM (inactive) | GI50 (SK-MEL-5): > 100 µM (inactive) | GI50 (SNB-78): > 100 µM (inactive) | GI50 (SW-620): 10.6 µM (inactive) | GI50 (UACC-62): > 100 µM (inactive) | GI50 (UO-31): > 100 µM (inactive)

Clc1cc(Cl)c2ns[s+]c2c1Cl
GI50 (ACHN): > 100 µM (inactive) | GI50 (COLO 205): > 100 µM (inactive) | GI50 (HL-60): > 100 µM (inactive) | GI50 (HOP-62): > 100 µM (inactive) | GI50 (IGROV-1): > 100 µM (inactive) | GI50 (KM12): > 100 µM (inactive) | GI50 (LOX IMVI): > 100 µM (inactive) | GI50 (M14): > 100 µM (inactive) | GI50 (M19-MEL): > 100 µM (inactive) | GI50 (NCI-H460): > 100 µM (inactive) | GI50 (OVCAR-5): > 100 µM (inactive) | GI50 (SF-539): > 100 µM (inactive) | GI50 (SK-MEL-5): > 100 µM (inactive) | GI50 (SNB-78): 0.158 µM (active) | GI50 (SW-620): > 100 µM (inactive) | GI50 (UACC-62): > 100 µM (inactive) | GI50 (UO-31): > 100 µM (inactive)
